In US20160201063A1, “EPIGENETIC REGULATORS OF FRATAXIN” (RANA THERAPEUTICS, INC., priority 2013, published 2016):
Where a name gives a salt, the structure may show the parent alone.

Experiments:
[1] = system: FXN mRNA; assay: Screen of library of eighty epigenetic inhibitors in GM03816 FRDA diseased fibroblasts, FXN mRNA fold change; assay type: cell-based, human; conditions: for fold induction at 1 µM / fold induction at 5 µM: Homo sapiens, Fibroblast, 72 h; for fold induction at 1 µM: read-out: 3816 1 uM (FXN mRNA fold change); for fold induction at 5 µM: read-out: 3816 5 uM (FXN mRNA fold change)
Protocol: FXN RNA levels are indicated on the y-axis and the inhibitors used at both 1 μM and 5 μM are shown on the x-axis.
A screen of a library of eighty epigenetic inhibitors (Cayman Chemical) was performed in GM03816 FRDA fibroblasts to identify epigenetic regulators that upregulate FXN expression.

[2] = system: FXN mRNA; assay: Screen of epigenetic inhibitors in GM0321 normal fibroblasts, FXN RNA levels; assay type: cell-based, human; conditions: for fold induction at 1 µM / fold induction at 5 µM: Homo sapiens, Fibroblast, 72 h; for fold induction at 1 µM: read-out: FXN mRNA fold change, 321B 1 uM; for fold induction at 5 µM: read-out: FXN mRNA fold change, 321B 5 uM
[3] = GM03816 FRDA diseased fibroblasts, 1 uM inhibitor, 3 days of treatment
[4] = GM03816 FRDA diseased fibroblasts, 5 uM inhibitor, 3 days of treatment
[5] = GM0321 normal fibroblasts, 1 uM inhibitor, 3 days of treatment
[6] = GM0321 normal fibroblasts, 5 uM inhibitor, 3 days of treatment

Compound	3816 1 uM (FXN mRNA fold change) [1, 3]	3816 5 uM (FXN mRNA fold change) [1, 4]	FXN mRNA fold change, 321B 1 uM [2, 5]	FXN mRNA fold change, 321B 5 uM [2, 6]	fold induction at 1 µM [1, 3]	fold induction at 5 µM [1, 4]	fold induction at 1 µM [2, 5]	fold induction at 5 µM [2, 6]	further results
Cl.N[C@@H]1C[C@H]1c1ccccc1 (racemic) [2-PCPA (hydrochloride)]	1.058	0.8786	0.7149	0.7888					
Anacardic Acid	1.162	1.01	1.169	0.8356					
Nc1cc(F)ccc1NC(=O)c1ccc(CNC(=O)/C=C/c2cccnc2)cc1 [Chidamide]					0.924	0.968	0.835	0.799	
CNCc1ccc(-c2[nH]c3cc(F)cc4c3c2CCNC4=O)cc1 [AG-014699]					1.06	0.892	0.895	1	
NC(=O)c1cccnc1 [Nicotinamide]					0.852	0.775	0.687	0.702	
COC(=O)CNC(=O)C(=O)OC [DMOG]	0.9685	0.9131	0.7317	0.9433					
(3S,3′S,5aR,5aR,10bR,10′bR,11aS,11′aS)- 2,2′,3,3′,5a,5′a,6,6′-octahydro- 3,3′-bis(hydroxymethyl)-2,2′- dimethyl-[10b,10′b(11H,11′H)- bi3,11a-epidithio-11aH- pyrazino[1′,2′:1,5]pyrrolo[2,3- b]indole]-1,1′4,4′-tetrone [Chaetocin, reference compound]	0.9302	0.7778	0.9084	0.9952					
O=C(NCc1ccccc1)c1c(/N=C/c2c(O)ccc3ccccc23)sc2c1CCCC2 [JGB1741]	1.006	1.17	0.9963	0.7224					
NC(=O)c1ccc(I)c([N+](=O)[O-])c1 [BSI-201]					1.13	0.844	1.03	0.985	
O=C1CCc2c(ccc3ccccc23)O1 [Splitomicin]					0.957	0.939	1.08	1.01	
O=C(/C=C/c1ccc(O)cc1)c1ccc(O)cc1O [Isoliquiritigenin]					1.27	0.963	1.16	1.29	
CCC(=O)CCCCC[C@@H]1NC(=O)[C@H]2CCCCN2C(=O)[C@H]([C@@H](C)CC)NC(=O)[C@H](Cc2cn(OC)c3ccccc23)NC1=O [Apicidin]									fold induction at 1 µM [1]: 0.0791; fold induction at 5 µM [1]: 0.435; fold induction at 1 µM [2]: 0.119; fold induction at 5 µM [2]: 0.397
C=C(C)[C@@H](CC=C(C)C)C[C@@]12C[C@@H](CC=C(C)C)C(C)(C)[C@@](CC=C(C)C)(C(=O)C(C(=O)c3ccc(O)c(O)c3)=C1O)C2=O [Garcinol]					1.01	1.09	0.63	1.33	
CCOC(=O)CCNc1cc(N2CCc3ccccc3CC2)nc(-c2cccnc2)n1.Cl [GSK-J5 (hydrochloride)]	1.183	0.9451	0.8597	0.9741					
CC(/C=C/C(=O)NO)=C\[C@@H](C)C(=O)c1ccc(N(C)C)cc1 [Trichostatin A]	0.9338	0.6921	1.023	0.7721					
O=C(O)CCNc1cc(N2CCc3ccccc3CC2)nc(-c2cccnc2)n1 [GSK-J2 (sodium salt)]	0.9711	0.9938	1.063						
UNC0321 (trifluoroacetate salt)	0.9323	0.8929	0.7517	0.605					
(−)-Neplanocin A	1.067	0.943	0.8734	1.105					
